Reference: patent publication US8309726B2, “Substituted piperazine compounds of formula 8” (Council of Scientific & Industrial Research, priority 2007, dated 2012)

Tests used:
calf thymus (CT) DNA = test: Thermal denaturation studies with duplex-form calf thymus DNA; assay type: binding; details: for ΔTm (° C.) after incubation at 37° C. for 0 h / ΔTm (° C.) after incubation at 37° C. for 18 h / ΔTm (° C.) after incubation at 37° C. for 36 h: [ANCD]/[DNA] molar ratio 1:5, CT-DNA 100 μM, ligand 20 μM, sodium phosphate buffer pH 7.00; for ΔTm (° C.) after incubation at 37° C. for 0 h: 0 h at 37° C.; for ΔTm (° C.) after incubation at 37° C. for 18 h: 18 h at 37° C.; for ΔTm (° C.) after incubation at 37° C. for 36 h: 36 h at 37° C.; for Course of ΔTm over incubation at 0 hr, 18 hr and 36 hr: incubation at 37° C., [ANCD]/[DNA] 1:5
Description: Compounds were subjected to thermal denaturation studies with duplex-form calf thymus DNA (CT-DNA) using an adaptation of a reported procedure. Working solutions in aqueous buffer (10 mM NaH2PO4/Na2HPO4, 1 mM Na2EDTA, pH 7.00+/−0.01) containing CT-DNA (100 μM in phosphate) and the PBD (20 μM) were prepared by addition of concentrated ANCD solutions in DMSO to obtain a fixed [ANCD]/[DNA] molar ratio of 1:5. The DNA-ANCD solutions were incubated at 37° C. for 0, 18, and 36 h prior to analysis. Samples were monitored at 260 nm using a Beckman DU-7400 spectrophotometer fitted with high performance temperature controller, and heating was applied at 1° C. min^−1 in the 40-90° C. range. DNA helix coil transition temperatures (Tm) were obtained from the maxima in the (dA260)/dT derivative plots. Results are given as the mean+/−standard deviation from three determinations and are corrected for the effects of DMSO co-solvent using a linear correction term. Drug-induced alterations in DNA melting behaviour are given by: ΔTm=Tm (DNA+ANCD)−Tm (DNA alone), where the Tm value for the ANCD-free CT-DNA is 69.0+/−0.01.

CNS cancer cell lines = test: In vitro cytotoxicity, CNS panel; assay type: cell-based; details: Homo sapiens, average of six to nine different cancer cell lines, 48 h, SRB, read-out: Log GI50 (concentration in mol/L causing 50% growth inhibition) (converted)
Description: (§1) In vitro evaluation of cytotoxic activity: Compounds were evaluated for in vitro anticancer activity against sixty human tumour cells derived from nine cancer types (colon, prostate, oral, lung, cervix and breast cancer) as shown in (Table 1, 2 and 3) 8b, 8c, 8d, and 8e, were evaluated for in vitro anticancer activity against sixty human tumour cells derived from nine cancer types (leukemia, non-small-cell lung, colon, CNS, melanoma, ovarian, prostate, and breast cancer) as shown in (Table 2 and 3). For the compound, dose response curves for each cell line were measured at a minimum of five concentrations at 10 fold dilutions. A protocol of 48 h continuous drug exposure was used and a sulforhodamine B (SRB) protein assay was used to estimate cell viability or growth. The concentration causing 50% cell growth inhibition (GI50), total cell growth inhibition (TGI 0% growth) and 50% cell death (LC50, −50% growth) compared with the control was calculated. The mean graph midpoint values of log10 TGI and log10 LC50 as well as log10 GI50 for 8a, 8b, 8c, 8d, and 8e, are listed in (Table 2 and 3).
(§2) Each cancer type represents the average of six to nine different cancer cell lines. The compounds 8a, 8b, 8c, 8d, 8e and 8f were evaluated for in vitro anticancer activity against sixty human tumour cells derived from nine cancer types (leukemia, colon, prostate, renal melanoma CNS, lung, cervix and breast cancer) as shown in Table 3. Compounds 8b, 8c, 8d and 8e show promising cytotoxicity against some cancer cell lines (Table 2). Compounds 8b, 8c, 8d and 8e have been evaluated for their in vitro cytotoxicity in selected human cancer cell lines of colon (Colo205), lung (Hop-62), cervix (SiHa), prostate (DU145, PC3), oral (DWD, HT1080), and breast (MCF7, Zr-75-1) origin. A protocol of 48 h continuous drug exposure has been used and an […] has been used to estimate cell viability or growth. The results are expressed as percent of cell growth determined relative to that of untreated control cells. […] In the breast cancer panel, the growth of BT-549, MCF-7 cell lines are 10.3, and 17.6. In the prostate cancer panel, the growth of DU-145, PC-3 cell lines are 11.3, and 19.2. The GI50 values of compound In the CNS cancer panel, the growth of SF-539, SNB-75 cell lines are […]. […] In vitro cytotoxicity of compounds 8a, and 8b in selected cancer cell lines has been illustrated in Table 3. The average GI50 values for each cancer panel of compounds 8b, 8c, 8d and 8e have been illustrated in above Table 2 and 3

Breast cancer cell lines = test: In vitro cytotoxicity, breast panel; assay type: cell-based; details: Homo sapiens, average of six to nine different cancer cell lines, 48 h, SRB, read-out: Log GI50 (concentration in mol/L causing 50% growth inhibition) (converted)
Description: as §1, §2

[1] = system: Nonsmall-cell-lung cancer cell lines; test: In vitro cytotoxicity, non-small-cell lung panel; assay type: cell-based; details: Homo sapiens, average of six to nine different cancer cell lines, 48 h, SRB, read-out: Log GI50 (concentration in mol/L causing 50% growth inhibition) (converted)
Description: as §1, §2

human tumour cell lines = test: In vitro anticancer activity against sixty human tumour cell lines (NCI, SRB assay); assay type: cell-based; details: for GI50: Homo sapiens
Description: as §1, §2

[2] = system: Melanoma cancer cell lines; test: In vitro cytotoxicity, melanoma panel; assay type: cell-based; details: Homo sapiens, average of six to nine different cancer cell lines, 48 h, SRB, read-out: Log GI50 (concentration in mol/L causing 50% growth inhibition) (converted)
Description: as §1, §2

[3] = system: Prostate cancer cell lines; test: In vitro cytotoxicity, prostate panel; assay type: cell-based; details: Homo sapiens, average of six to nine different cancer cell lines, 48 h, SRB, read-out: Log GI50 (concentration in mol/L causing 50% growth inhibition) (converted)
Description: as §1, §2

[4] = system: Ovarian cancer cell lines; test: In vitro cytotoxicity, ovarian panel; assay type: cell-based; details: Homo sapiens, average of six to nine different cancer cell lines, 48 h, SRB, read-out: Log GI50 (concentration in mol/L causing 50% growth inhibition) (converted)
Description: as §1, §2

[5] = system: Leukemia cancer cell lines; test: In vitro cytotoxicity, leukemia panel; assay type: cell-based; details: Homo sapiens, average of six to nine different cancer cell lines, 48 h, SRB, read-out: Log GI50 (concentration in mol/L causing 50% growth inhibition) (converted)
Description: as §1, §2

Colon cancer cell lines = test: In vitro cytotoxicity, colon panel; assay type: cell-based; details: Homo sapiens, average of six to nine different cancer cell lines, 48 h, SRB, read-out: Log GI50 (concentration in mol/L causing 50% growth inhibition) (converted)
Description: as §1, §2

Renal cancer cell lines = test: In vitro cytotoxicity, renal panel; assay type: cell-based; details: Homo sapiens, average of six to nine different cancer cell lines, 48 h, SRB, read-out: Log GI50 (concentration in mol/L causing 50% growth inhibition) (converted)
Description: as §1, §2

| Molecule | ΔTm (° C.) after incubation at 37° C. for 0 h (calf thymus (CT) DNA) [°C] | ΔTm (° C.) after incubation at 37° C. for 18 h (calf thymus (CT) DNA) [°C] | ΔTm (° C.) after incubation at 37° C. for 36 h (calf thymus (CT) DNA) [°C] | Course of ΔTm over incubation at 0 hr, 18 hr and 36 hr (calf thymus (CT) DNA) | also measured |
| --- | --- | --- | --- | --- | --- |
| COc1cc(C(=O)N2CCN(c3ccccc3OC)CC2)c(N)cc1OCCCN1CCN(c2ccccc2OC)CC1 [Compound 11, (2-amino-5-methoxy-4-3-[4-(2-methoxyphenyl)piperazino]propoxyphenyl)[4-(2-methoxyphenyl)piperazino]methanone] | 1.4 | 2.1 | 2.1 | gradually increased |  |
| COc1cc(C(=O)Nc2ccc(S(=O)(=O)c3ccc(NC(=O)c4cc(OC)c(OCc5ccccc5)cc4N)cc3)cc2)c(N)cc1OCc1ccccc1 [Compound 8h, N1-4-[(4-[2-amino-4-(benzyloxy)-5-methoxybenzoyl]aminophenyl)sulfonyl]phenyl-2-amino-4-(benzyloxy)-5-methoxybenzamide] | 1.5 | 2.3 | 2.4 | gradually increased |  |
| COc1cc2c(cc1O)N=CC1CCCN1C2=O (stereo not drawn) [DC-81, reference compound] | 0.3 | 0.7 |  |  |  |
| COc1cc(C(=O)NC2c3ccccc3-c3ccccc32)c(N)cc1OCc1ccccc1 [Compound 8e, N1-(9H-9-fluorenyl)-2-amino-4-(benzyloxy)-5-methoxybenzamide] | 1.9 | 2.3 | 2.8 | gradually increased | GI50 (CNS cancer cell lines): 5.5 µM; GI50 (Breast cancer cell lines): ≤ 0.01 µM; GI50 [1]: 1.38 µM; Log10LC50 mean graph midpoint (MG_MID) (human tumour cell lines; 50% cell death, 48 h continuous drug exposure, SRB assay): −4.19; Log10GI50 mean graph midpoint (MG_MID) (human tumour cell lines; 50% cell growth inhibition, 48 h continuous drug exposure, SRB assay): −6.47; GI50 (human tumour cell lines; fifty-seven cell lines in nine cancer cell panels): < 10 µM; GI50 (human tumour cell lines; sixty cell lines in nine cell panels): < 20 µM; antiproliferative activity (human tumour cell lines; against most of the tested cell lines): nanomolar to low micromolar concentrations; Log10TGI50 mean graph midpoint (MG_MID) (human tumour cell lines; total cell growth inhibition, 48 h continuous drug exposure, SRB assay): −6.06; GI50 [2]: 1.78 µM; GI50 [3]: 0.355 µM; GI50 [4]: 10 µM; GI50 [5]: 4.27 µM; GI50 (Colon cancer cell lines): 1.7 µM; GI50 (Renal cancer cell lines): 15.1 µM |
| {2-amino-5-(methyloxy)-4[(phenylmethyl)oxy]phenyl}[4-({2-amino-5-(methyloxy)-4-[(phenylmethyl)oxy]phenyl}carbonyl)hexahydro-1-piperazinyl]methanone [Compound 8g] | 1.6 | 2.6 | 2.9 | gradually increased |  |
